Source: paper PMC6958661, “Regulatory Role of PlaR (YiaJ) for Plant Utilization in Escherichia coli K-12” (Scientific Reports, 2019)

Target: T1, PlaR (YiaJ) (Escherichia coli, UniProt P37671)
T1 sequence (P37671 1-282): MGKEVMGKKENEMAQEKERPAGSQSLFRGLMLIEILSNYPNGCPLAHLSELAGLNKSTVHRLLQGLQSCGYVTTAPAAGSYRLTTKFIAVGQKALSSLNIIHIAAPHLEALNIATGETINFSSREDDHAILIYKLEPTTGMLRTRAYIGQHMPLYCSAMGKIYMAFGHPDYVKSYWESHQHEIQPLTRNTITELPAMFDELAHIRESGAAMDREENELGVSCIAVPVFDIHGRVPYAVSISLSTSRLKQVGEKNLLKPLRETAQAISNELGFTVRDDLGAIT
Assay: gel shift assay, dissociation of PlaR from yiaK promoter DNA
Assay type: binding
Details: 2.5 uM PlaR, yiaK promoter probe, 1-25 mM compound, 37 °C, pH 7.8, 150 mM NaCl, 3 mM Mg acetate; effector (inducer)

Structure (SMILES) | gel shift assay, dissociation of PlaR from yiaK promoter DNA
O=C1O[C@H]([C@@H](O)CO)C(O)=C1O [L-ascorbate] | Both the metabolites induced a dose-dependent dissociation in vitro of PlaR from the PlaR-yiaK promoter
O=C(O)[C@H]1O[C@H](O)[C@H](O)[C@@H](O)[C@H]1O [α-D-galacturonate] | Both the metabolites induced a dose-dependent dissociation in vitro of PlaR from the PlaR-yiaK promoter
